Reference: EP4782448A1, “SUBSTITUTED PYRIDOTRIAZOLE COMPOUND, AND PREPARATION METHOD THEREFOR AND USE THEREOF” (Origiant Pharmaceutical Co., Ltd., priority 2023, dated 2025)

System: HT-29 cells
Experiment: In vitro assay for protection of HT-29 cells from necroptosis (TNFα/Smac mimetic/Z-VAD-FMK induction, CCK8 readout)
Format: cell-based
Settings: TNFα/Smac mimetic/Z-VAD-FMK for 24 h; inhibition of necroptosis; read-out: HT-29 (EC50)

Row | SMILES | EC50 [nM]
1 | C[C@H](NC(=O)c1cn(C)c2ccc(-c3ccn4nc(NC(=O)CN5CCOCC5)nc4c3)cc12)c1ccco1 [Compound 88] | 1 to 10
2 | CC(=O)Nc1nc2cc(-c3ccc4c(c3)c(C(=O)N[C@H]3CCc5cc(C#N)ccc53)cn4C)ccn2n1 [Compound 132] | 100 to 1000
3 | CN1CCN(C(=O)Nc2nc3cc(-c4ccc5c(c4)c(C(=O)N[C@@H](CF)c4ccc(F)cc4)cn5C)ccn3n2)CC1 [Compound 95] | < 1
4 | C[C@H](NC(=O)c1cn(C)c2ccc(-c3ccn4nc(NC(=O)CN5CC[C@@H](CO)C5)nc4c3)cc12)c1ccc(F)cc1 [Compound 62] | < 1
5 | Cn1cc(C(=O)N[C@@H](CF)c2ccc(F)cc2)c2cc(-c3ccn4nc(NCC5CC5)nc4c3)ccc21 [Compound 108] | < 1
6 | CC(=O)Nc1nc2cc(-c3ccc4c(c3)c(C(=O)N[C@@H]3C[C@H]3c3ccc(F)c(F)c3)cn4C)ccn2n1 [Compound 125] | 1000 to 10000
7 | CN(C)CC(=O)Nc1nc2cc(-c3ccc4c(c3)c(C(=O)N[C@H](c3ccc(F)cc3)C(F)F)cn4C)ccn2n1 [Compound 167] | < 1
8 | Cn1cc(C(=O)Nc2nc3cc(-c4ccc5c(c4)c(C(=O)N[C@H]4CCCc6cc(F)ccc64)cn5C)ccn3n2)cn1 [Compound 141] | 1 to 10
9 | Cn1cc(C(=O)N2CCC[C@H]2c2ccc(F)cc2)c2cc(-c3ccn4nc(NC(=O)N5CCOCC5)nc4c3)ccc21 [Compound 153] | < 1
10 | C[C@H](NC(=O)c1cn(C)c2ccc(-c3ccn4nc(NC(=O)CN5CC(F)(F)C5)nc4c3)cc12)c1ccc(Cl)cc1 [Compound 80] | < 1
11 | CN1CC[C@@H](C(=O)Nc2nc3cc(-c4ccc5c(c4)c(C(=O)N[C@@H](CF)c4ccc(F)cc4)cn5C)ccn3n2)C1 [Compound 100] | < 1
12 | C[C@H](NC(=O)c1cn(C)c2ccc(-c3ccn4nc(NC(=O)CN5CCN(C(=O)C6CC6)CC5)nc4c3)cc12)c1ccc(F)cc1 [Compound 50] | < 1
13 | Cn1cc(C(=O)N2CC(F)(F)CC2c2ccc(F)cc2)c2cc(-c3ccn4nc(NC(=O)C5CCOC5)nc4c3)ccc21 (stereo not drawn) [Compound 159] | < 1
14 | Cn1cc(C(=O)N[C@@H](CF)c2ccc(F)cc2)c2cc(-c3ccn4nc(NC(=O)N5CCOCC5)nc4c3)ccc21 [Compound 103] | < 1
15 | Cn1cc(C(=O)N[C@@H](CF)c2ccc(F)cc2)c2cc(-c3ccn4nc(NC(=O)C#N)nc4c3)ccc21 [Compound 102] | < 1
16 | Cn1cc(C(=O)N[C@@H](CF)c2ccc(F)cc2)c2cc(-c3ccn4nc(NC(=O)C5CC5(F)F)nc4c3)ccc21 (stereo partly drawn) [Compound 110] | < 1
17 | CC[C@H](NC(=O)c1cn(C)c2ccc(-c3ccn4nc(NC(=O)CN5CCOCC5)nc4c3)cc12)c1ccc(F)cc1 [Compound 197] | < 1
18 | C[C@H](NC(=O)c1cn(C)c2ccc(-c3ccn4nc(NC(=O)CN5CC[C@@H](O)C5)nc4c3)cc12)c1ccc(F)cc1 [Compound 12] | < 1
19 | Cn1cc(C(=O)N[C@H]2CCCc3cc(F)ccc32)c2cc(-c3ccn4nc(NC(=O)[C@@H]5CCCO5)nc4c3)ccc21 [Compound 139] | 1 to 10
20 | Cn1cc(C(=O)N[C@@H](CF)c2ccc(F)cc2)c2cc(-c3ccn4nc(NC(=O)[C@H]5CCCO5)nc4c3)ccc21 [Compound 104] | 1000 to 10000
21 | CO[C@@H](C)C(=O)Nc1nc2cc(-c3ccc4c(c3)c(C(=O)N[C@@H](CF)c3ccc(F)cc3)cn4C)ccn2n1 [Compound 98] | < 1

Row | SMILES | EC50 [nM]
22 | C[C@H](NC(=O)c1cn(C)c2ccc(-c3ccn4nc(NC(=O)CN5CC[C@@H](F)C5)nc4c3)cc12)c1ccc(F)cc1 [Compound 20] | < 1
23 | Cn1cc(C(=O)Nc2nc3cc(-c4ccc5c(c4)c(C(=O)N[C@@H](CF)c4ccc(F)cc4)cn5C)ccn3n2)cn1 [Compound 111] | 1 to 10
24 | Cn1cc(C(=O)N[C@H]2CCCc3cc(F)ccc32)c2cc(-c3ccn4nc(NC(=O)CC#N)nc4c3)ccc21 [Compound 142] | 10 to 100
25 | CC1CN(CC(=O)Nc2nc3cc(-c4ccc5c(c4)c(C(=O)N[C@@H](C)c4ccc(Cl)cc4)cn5C)ccn3n2)CCO1 (stereo partly drawn) [Compound 84] | < 1
26 | C[C@H](NC(=O)c1cn(C)c2ccc(-c3ccn4nc(NC(=O)C5CC5F)nc4c3)cc12)C(C)(C)C (stereo partly drawn) [Compound 92] | 100 to 1000
27 | C[C@H](NC(=O)c1cn(C)c2ccc(-c3ccn4nc(NC(=O)CN5CCN(C(=O)OC(C)(C)C)C[C@H]5C)nc4c3)cc12)c1ccc(F)cc1 [Compound 64] | < 1
28 | Cn1cc(C(=O)Nc2nc3cc(-c4ccc5c(c4)c(C(=O)N[C@@H](CF)c4cccc(F)c4)cn5C)ccn3n2)cn1 [Compound 155] | < 1
29 | CC(=O)N1CCN(CC(=O)Nc2nc3cc(-c4ccc5c(c4)c(C(=O)N[C@@H](C)c4ccc(F)cc4)cn5C)ccn3n2)CC1 [Compound 53] | < 1
30 | Cn1cc(C(=O)Nc2nc3cc(-c4ccc5c(c4)c(C(=O)N[C@@H](CF)c4ccc(F)cc4)nn5C)ccn3n2)cn1 [Compound 187] | < 1
31 | C[C@H](NC(=O)c1cn(C)c2ccc(-c3ccn4nc(NC(=O)CN5CCCOCC5)nc4c3)cc12)c1ccc(F)cc1 [Compound 30] | < 1
32 | C[C@H](NC(=O)c1cn(C)c2ccc(-c3ccn4nc(NC(=O)CN5CCC[C@@H](O)C5)nc4c3)cc12)c1ccc(F)cc1 [Compound 49] | 1 to 10
33 | Cn1cc(C(=O)Nc2nc3cc(-c4ccc5c(c4)c(C(=O)N4N=CCC4c4ccc(F)cc4)cn5C)ccn3n2)cn1 (stereo not drawn) [Compound 171] | 1 to 10
34 | C[C@H](NC(=O)c1cn(C)c2ccc(-c3ccn4nc(NC(=O)CN5CCS(=O)(=O)CC5)nc4c3)cc12)c1ccc(F)cc1 [Compound 28] | 1 to 10
35 | Cn1nc(C(=O)N[C@@H](CF)c2ccc(F)cc2)c2cc(-c3ccn4nc(NC(=O)C5CC5)nc4c3)ccc21 [Compound 190] | < 1
36 | CCNCC(=O)Nc1nc2cc(-c3ccc4c(c3)c(C(=O)N[C@@H](C)c3ccc(F)cc3)cn4C)ccn2n1 [Compound 76] | < 1
37 | Cn1cc(C(=O)N2N=CCC2c2ccc(F)cc2)c2cc(-c3ccn4nc(NC(=O)N5CCOCC5)nc4c3)ccc21 (stereo not drawn) [Compound 172] | 1 to 10
38 | CC(C)NCC(=O)Nc1nc2cc(-c3ccc4c(c3)c(C(=O)N[C@@H](C)c3ccc(F)cc3)cn4C)ccn2n1 [Compound 67] | < 1
39 | Cn1cc(C2=NC(c3ccc(F)cc3)CO2)c2cc(-c3ccn4nc(NC(=O)C5CC5)nc4c3)ccc21 (stereo not drawn) [Compound 212] | 10 to 100
40 | C[C@H](NC(=O)c1cn(C)c2ccc(-c3ccn4nc(NC(=O)N5CCOCC5)nc4c3)cc12)c1ccc(F)cc1 [Compound 116] | < 1
41 | C[C@H](NC(=O)c1cn(C)c2ccc(-c3ccn4nc(NC(=O)CN5CCC[C@H](O)C5)nc4c3)cc12)c1ccc(F)cc1 [Compound 7] | < 1
42 | Cn1cc(C(=O)N[C@@H](CF)c2ccc(F)cc2)c2cc(-c3ccn4nc(NC(=O)C5(C)CCC5)nc4c3)ccc21 [Compound 105] | 10 to 100

Row | SMILES | EC50 [nM]
43 | Cn1cc(C(=O)Nc2nc3cc(-c4ccc5c(c4)c(C(=O)N[C@H]4CCCc6ccc(F)cc64)cn5C)ccn3n2)cn1 [Compound 143] | 1 to 10
44 | C[C@H](NC(=O)c1cn(C)c2ccc(-c3ccn4nc(NC5CCOC5)nc4c3)cc12)c1ccc(F)cc1 (stereo partly drawn) [Compound 107] | < 1
45 | CCOC(=O)C(=O)Nc1nc2cc(-c3ccc4c(c3)c(C(=O)N[C@@H](C)c3ccc(F)cc3)cn4C)ccn2n1 [Compound 10] | 1 to 10
46 | C[C@H](NC(=O)c1cn(C)c2ccc(-c3ccn4nc(NC(=O)CNC5CCOC5)nc4c3)cc12)c1ccc(F)cc1 (stereo partly drawn) [Compound 77] | < 1
47 | C[C@H](NC(=O)c1cn(C)c2ccc(-c3ccn4nc(NC(=O)[C@H]5CCCO5)nc4c3)cc12)c1ccc(F)cc1 [Compound 117] | < 1
48 | C[C@H](NC(=O)c1cn(C)c2ccc(-c3ccn4nc(N5CCOCC5=O)nc4c3)cc12)c1ccc(F)cc1 [Compound 218] | 10 to 100
49 | C[C@H](NC(=O)c1cn(C)c2ccc(-c3ccn4nc(NC(=O)CN5CCC(O)(O)CC5)nc4c3)cc12)c1ccc(F)cc1 [Compound 5] | < 1
50 | C[C@H](NC(=O)c1cn(C)c2ccc(-c3ccn4nc(NC(=O)CNCCOCCO)nc4c3)cc12)c1ccc(F)cc1 [Compound 65] | < 1
51 | Cn1nc(C(=O)N[C@@H](CF)c2ccc(F)cc2)c2cc(-c3ccn4nc(NC(=O)C5CCOC5)nc4c3)ccc21 (stereo partly drawn) [Compound 188] | < 1
52 | C[C@H](NC(=O)c1cn(C)c2ccc(-c3ccn4nc(NC(=O)CN5CC[C@H](CO)C5)nc4c3)cc12)c1ccc(F)cc1 [Compound 61] | 1 to 10
53 | C[C@H](NC(=O)c1cn(C)c2ccc(-c3ccn4nc(N5CCOCC5)nc4c3)cc12)c1ccc(F)cc1 [Compound 219] | 1 to 10
54 | C[C@H](NC(=O)c1cn(C)c2ccc(-c3ccn4nc(NC(=O)CN5CCOCC5)nc4c3)cc12)C(C)(C)C [Compound 90] | 1000 to 10000
55 | COC1CCN(CC(=O)Nc2nc3cc(-c4ccc5c(c4)c(C(=O)N[C@@H](C)c4ccc(F)cc4)cn5C)ccn3n2)CC1 [Compound 24] | < 1
56 | C[C@H](NC(=O)c1cn(C)c2ccc(-c3ccn4nc(NC(=O)CC5CCCCC5)nc4c3)cc12)c1ccc(F)cc1 [Compound 13] | < 1
57 | C[C@H](NC(=O)c1cn(C)c2ccc(-c3ccn4nc(NC(=O)CN5CC[C@H](F)C5)nc4c3)cc12)c1ccc(F)cc1 [Compound 21] | < 1
58 | COCCOCCOCCOCC(=O)Nc1nc2cc(-c3ccc4c(c3)c(C(=O)N[C@@H](C)c3ccc(F)cc3)cn4C)ccn2n1 [Compound 26] | < 1
59 | CC(C(=O)Nc1cn(C)c2ccc(-c3ccn4nc(NC(=O)[C@H]5CCCO5)nc4c3)cc12)c1ccc(F)cc1 (stereo partly drawn) [Compound 178] | 100 to 1000
60 | Cn1cc(C(=O)N2CCC[C@H]2c2ccc(F)cc2)c2cc(-c3ccn4nc(NC(=O)C5CCOC5)nc4c3)ccc21 (stereo partly drawn) [Compound 186] | < 1
61 | CN1CCC(C(=O)Nc2nc3cc(-c4ccc5c(c4)c(C(=O)N[C@H](c4ccc(F)cc4)C(F)F)cn5C)ccn3n2)C1 (stereo partly drawn) [Compound 168] | < 1
62 | COCC(=O)Nc1nc2cc(-c3ccc4c(c3)c(C(=O)N[C@@H](CF)c3ccc(F)cc3)cn4C)ccn2n1 [Compound 97] | < 1
63 | C[C@H](NC(=O)c1cn(C)c2ccc(-c3ccn4nc(NC(=O)CN5CCOC[C@H]5C)nc4c3)cc12)c1ccc(Cl)cc1 [Compound 81] | < 1
